Test results published in patent US20020049139A1, “Herbicidal compositions containing DMSO” (priority 1997, published 2002).

What was measured:
cacao seedling = settings: aqueous solutions containing 40% or greater amounts of DMSO; cited from earlier work
azaleas = assay: Phytotoxicity of DMSO sprays on azaleas; format: in vivo, azalea
Protocol: (§1) Phytotoxicity of DMSO sprays was evaluated on hosta, ferns and azaleas. In each instance, groups of 6 plants were sprayed with 1%, 2%, 5% or 10% aqueous DMSO.

hosta = assay: Phytotoxicity of DMSO sprays on hosta; format: in vivo
Protocol: as §1

ferns = assay: Phytotoxicity of DMSO sprays on ferns; format: in vivo
Protocol: as §1

sickle pod [1] = assay: Greenhouse control of sickle pod by glyphosate with/without DMSO; format: in vivo
sickle pod [2] = assay: as above; format: in vivo; remark: listed apart in the source
Protocol: Glyphosate (N-(phosphonomethyl) glycine), the active agent (41%) in Composition B and other similar non-selective herbicidal products for control of many annual and perennial grasses, broadleaf weeds, woody shrubs and trees was evaluated in greenhouse studies. The LD50 range for glyphosate in the commercial concentrate Composition B on sickle pod grown in the greenhouse was established at 0.06%, and […].
Data showing effectiveness for control of sickle pod at concentration 0.06% and 0.3% in carrier with 3% DMSO are shown below. The testing procedure used 12 sickle pod 3 inches high selected for uniformity in each treatment. The rating of injury to each plant was based on visual rating of herbicidal activity with +=10%, ++=25%, +++=50%, ++++−75% and dead plants=[…].

Compound	effect on cacao seedling (cacao seedling)	Effects (azaleas; azalea sprayed with 2% aqueous DMSO)	Effects (azaleas; azalea sprayed with 5% aqueous DMSO)	Effects (azaleas; azalea sprayed with 10% aqueous DMSO)	Effects (hosta; hosta sprayed with 2% aqueous DMSO)	Effects (hosta; hosta sprayed with 5% aqueous DMSO)	Effects (hosta; hosta sprayed with 10% aqueous DMSO)	Effects (ferns; ferns sprayed with 2% aqueous DMSO)	Effects (ferns; ferns sprayed with 5% aqueous DMSO)	Effects (ferns; ferns sprayed with 10% aqueous DMSO)	% control of sickle pod (sickle pod [1]; 0.03% glyphosate with 3% DMSO, 12 days)	sickle pod control with 3% DMSO versus without DMSO (sickle pod [1]; glyphosate at 0.06% and 0.03%, 3% DMSO present)	% control of sickle pod (sickle pod [2]; 0.03% glyphosate only, 12 days)	% control of sickle pod (sickle pod [2]; 0.06% glyphosate only, 12 days)	% control of sickle pod (sickle pod [2]; 0.06% glyphosate only, 20 days)	% control of sickle pod (sickle pod [2]; 0.06% glyphosate only, 30 days)	% control of sickle pod (sickle pod [2]; 0.06% glyphosate with 3% DMSO, 12 days)	% control of sickle pod (sickle pod [2]; 0.06% glyphosate, 3% DMSO, 20 days)	control of sickle pod over a 30 day interval with 3% DMSO versus glyphosate only (sickle pod [2]; 0.06% glyphosate, 3% DMSO, 30 day interval)	% control of sickle pod (sickle pod [2]; 0.06% glyphosate, 3% DMSO, 30 days)
C[S+](C)[O-] [DMSO, Dimethylsulfoxide]	marginal necroses	non-toxic	non-toxic	non-toxic	non-toxic	non-toxic	Margina burn	non-toxic	burn on fron tips	burn on fron tips	–	–	–	–	–	–	–	–	–	–
O=C(O)CNCP(=O)(O)O [glyphosate, N-(phosphonomethyl) glycine]	–	–	–	–	–	–	–	–	–	–	85%	significant improvement	54%	51%	43%	85%	90%	85%	improved early and sustained control	96%
